As a reminder, the IC50 is the point on the concentration scale where inhibition reaches its midpoint.

The subject of assay [1] is human EGFR. The assay can be described thus: EGFR inhibition (salt bridge pair). The following applies: 9 (carbon in place of terminal N,N-dimethylamino nitrogen) vs 10. It counts as biochemical.
Assay [2] relates to human EGFR. More on the design: method as in PMID 23611691. To be noted: human EGFR inhibitors; cited from earlier work.
Assay [3] concerns human factor Xa. The assay can be described thus: factor Xa inhibition, ammonium methylation series (cation–π). The following applies: trimethylated ammonium 17 vs tert-butyl analog 15. Format: biochemical.
In assay [4] the test system is human sEH. More on the design: method as in PMID 19746975. To be noted: human sEH inhibitors; cited from earlier work.
In assay [5] the test system is thrombin. More on the design: method as in PMID 20148533. The following applies: thrombin inhibitors; cited from earlier work.

The structures appear in SMILES notation.

For the molecule `CC(C)CCCC(=O)Nc1cccc(-c2c(-c3ccccc3)oc3ncnc(N[C@H](CO)c4ccccc4)c23)c1` [compound 9], the “potency reduced by fold” value in assay [1] was “more than 800 fold”. Besides, the IC50 in assay [2] was more than 25000 nM.

For the molecule `C[N+](C)(C)CCCN1C(=O)[C@@H]2[C@H](C1=O)[C@H](c1cc(-c3ccc(Cl)s3)on1)N1CCC[C@@H]21` (racemic) [(±)-17], in assay [3], the “fold increase in potency” value came out at 60 fold.

Regarding `O=C(NCCCc1ccccc1)c1cccnc1` [compound 5], the IC50 in assay [4] is 700 nM.

Take `O=C(NCc1cccc(Cl)c1)[C@@H]1CCCN1C(=O)CCc1ccccc1` [compound 3]: in assay [5], the IC50 was 94300 nM.

On to `O=C(NCCC(c1ccccc1)c1ccccc1)c1cccnc1` [compound 6], for which, in assay [4], the IC50 is […].

Consider `CN(C)CCCC(=O)Nc1cccc(-c2c(-c3ccccc3)oc3ncnc(N[C@H](CO)c4ccccc4)c23)c1` [compound 10], for which the IC50 in assay [2] is 29 nM.

Source of the values: paper PMC5708362, “A systematic analysis of atomic protein–ligand interactions in the PDB” (MedChemComm, 2017).
